The values below come from patent publication US20230181624A1, “COMPOSITIONS AND METHODS FOR TREATMENT OF GASTROINTESTINAL BLEEDING” (Intact Therapeutics, Inc., priority 2020, published 2023).

In series [1] the test system is mouse tail. Put plainly: Mouse tail-snip assay (bleeding time). Particulars: amputated tail submerged in 1.5 ml of test formulation; compared with water. In kind it is in vivo. On the procedure:
A formulation of the invention was tested for the ability to prevent bleeding using a mouse tail-snip assay. A portion of tail one centimeter in length was amputated from an anesthetized mouse, and the remaining portion of the tail was immediately submerged in 1.5 ml of test formulation. Bleeding time was recorded as time from amputation to complete cessation of bleeding. The following formulations were tested: water; a solution of 5% tranexamic acid (TXA) in water; a gelled formulation containing Poloxamer 407 (TDP); and a gelled formulation containing 5% tranexamic acid and TDP. Each formulation was tested on seven animals total over the course of three experiments.
FIG. 8 is a graph showing bleeding time of mouse tails exposed to various formulations in a mouse tail-snip assay. *P<0.05, **P<0.01, ***P<0.001, ****P<0.0001, based on one-way ANOVA with the Tukey post-test.

A short description of series [2]: Drug release from solidified Poloxamer 407 thermogel. Type of series: physicochemical. Particulars: within 3 hours. The text has this: The properties of thermogels based on Poloxamer 407 were investigated. Poloxamer 407 has a molecular weight of 12,000 Da and a PEO/PPO ratio of 2:1 by weight, and it is Generally Recognized As Safe (GRAS) by the FDA.

Regarding `NC[C@H]1CC[C@H](C(=O)O)CC1` [TXA, tranexamic acid], the bleeding time result in series [1] is listed as “decrease bleeding time”. `CCN(CC)CC(=O)Nc1c(C)cccc1C` [lidocaine] returned a drug being delivered in series [2] of approximately 60%.
